From the NIST ThermoML archive (doi:10.1016/j.jct.2014.09.020)

How the values were obtained:
[1] = xn = mol fraction of the nth substance listed; settings: Liquid, x1 = 1; for speed of sound: Frequency=4 MHz, Single path-length method; for mass density: Vibrating tube method
[2] = Liquid; for speed of sound: Frequency=4 MHz, Single path-length method; for mass density: Vibrating tube method

CCCCCCCCCC [decane] + c1ccc2c(c1)CCCC2
[1]
Settings | mass density, 100 kPa [kg/m3] | speed of sound, 100 kPa [m/s] | speed of sound, 5000 kPa [m/s] | speed of sound, 10000 kPa [m/s] | speed of sound, 15000 kPa [m/s] | speed of sound, 20000 kPa [m/s] | speed of sound, 25000 kPa [m/s]
313.15 K | 714.87 | 1177 | 1209 | 1243 | 1274 | 1303 | 1327
323.15 K | 707.2 | 1139 | 1174 | 1207 | 1238 | 1269 | 1296
333.15 K | 699.47 | 1099 | 1134 | 1171 | 1204 | 1234 | 1264

CCCCCCCCCCCCCCCC [hexadecane]
[2]
Settings | mass density, 100 kPa [kg/m3] | speed of sound, 100 kPa [m/s] | speed of sound, 5000 kPa [m/s] | speed of sound, 10000 kPa [m/s] | speed of sound, 15000 kPa [m/s] | speed of sound, 20000 kPa [m/s] | speed of sound, 25000 kPa [m/s]
313.15 K | 759.55 | 1283 | 1311 | 1340 | 1366 | 1391 | 1416
323.15 K | 752.64 | 1248 | 1278 | 1307 | 1335 | 1361 | 1387
333.15 K | 745.73 | 1212 | 1242 | 1273 | 1301 | 1328 | 1354

CCCCCCCCCCCCCCCC [hexadecane] + c1ccc2c(c1)CCCC2
[1]
Settings | mass density, 100 kPa [kg/m3] | speed of sound, 100 kPa [m/s] | speed of sound, 5000 kPa [m/s] | speed of sound, 10000 kPa [m/s] | speed of sound, 15000 kPa [m/s] | speed of sound, 20000 kPa [m/s] | speed of sound, 25000 kPa [m/s]
313.15 K | 759.55 | 1283 | 1311 | 1340 | 1366 | 1391 | 1416
323.15 K | 752.64 | 1248 | 1278 | 1307 | 1335 | 1361 | 1387
333.15 K | 745.73 | 1212 | 1242 | 1273 | 1301 | 1328 | 1354
